Reference: US20130338106A1, “COMPOUNDS INHIBITING LEUCINE-RICH REPEAT KINASE ENZYME ACTIVITY” (priority 2011, published 2013)

Target: T1, LRRK2 G2019S mutant kinase (Homo sapiens, UniProt Q5S007, G2019S)
T1 construct: GST; purchased Invitrogen PV4882
Experiment: LRRK2 G2019S LanthaScreen TR-FRET kinase assay
Assay type: biochemical
Details: LRRK2 G2019S GST-tagged protein, 100 μM ATP, LRRKtide substrate; read-out: IC50 (potency)
Protocol: Activity of compounds against LRRK2 G2019S mutant kinase function was tested in a LANTHAScreen® assay as follows: Compounds were diluted in 100% DMSO to the desired test concentrations in white, low-volume 384-well plates (PerkinElmer ProxiPlate® PN: 6008280). TR-FRET kinase reactions (10 μL) were performed with 75 nM Fluorescein-ERM (LRRKtide, Invitrogen, PN:PV4901) substrate in a final assay buffer containing 100 μM ATP and 2 mM DTT diluted in commercially available Kinase Buffer S (Invitrogen PN: PV5213). The final solvent concentration in the assay was 1% DMSO. Reactions were initiated with the addition of 10 ng/well of LRRK2 02019S, GST-tagged protein (Invitrogen PN: PV4882). After incubation of the foil sealed reaction plates at room temperature with low speed mixing for 1 hour, the kinase reaction was stopped and the amount of substrate phosphorylation was detected by addition of 10 μL of 10 mM EDTA and 2 nM Tb-anti-pERM (pLRRKtide antibody, Invitrogen, PN: PV4898) antibody in TR-FRET dilution buffer (Invitrogen PN: PV3574). After a 30 minute incubation at room temperature with low speed mixing, foil seals were removed and measurements were obtained on a PerkinElmer EnVision with excitation 340 nm, emission 520 nm (channel 1): 495 nm (channel 2) settings. Generation of raw data and workup of data to derive the IC50 (potency) and maximal inhibition at concentrations tested were performed using Merck's Assay Data Analyzer (ADA) software.

T1 sequence (Q5S007 whole entry G2019S): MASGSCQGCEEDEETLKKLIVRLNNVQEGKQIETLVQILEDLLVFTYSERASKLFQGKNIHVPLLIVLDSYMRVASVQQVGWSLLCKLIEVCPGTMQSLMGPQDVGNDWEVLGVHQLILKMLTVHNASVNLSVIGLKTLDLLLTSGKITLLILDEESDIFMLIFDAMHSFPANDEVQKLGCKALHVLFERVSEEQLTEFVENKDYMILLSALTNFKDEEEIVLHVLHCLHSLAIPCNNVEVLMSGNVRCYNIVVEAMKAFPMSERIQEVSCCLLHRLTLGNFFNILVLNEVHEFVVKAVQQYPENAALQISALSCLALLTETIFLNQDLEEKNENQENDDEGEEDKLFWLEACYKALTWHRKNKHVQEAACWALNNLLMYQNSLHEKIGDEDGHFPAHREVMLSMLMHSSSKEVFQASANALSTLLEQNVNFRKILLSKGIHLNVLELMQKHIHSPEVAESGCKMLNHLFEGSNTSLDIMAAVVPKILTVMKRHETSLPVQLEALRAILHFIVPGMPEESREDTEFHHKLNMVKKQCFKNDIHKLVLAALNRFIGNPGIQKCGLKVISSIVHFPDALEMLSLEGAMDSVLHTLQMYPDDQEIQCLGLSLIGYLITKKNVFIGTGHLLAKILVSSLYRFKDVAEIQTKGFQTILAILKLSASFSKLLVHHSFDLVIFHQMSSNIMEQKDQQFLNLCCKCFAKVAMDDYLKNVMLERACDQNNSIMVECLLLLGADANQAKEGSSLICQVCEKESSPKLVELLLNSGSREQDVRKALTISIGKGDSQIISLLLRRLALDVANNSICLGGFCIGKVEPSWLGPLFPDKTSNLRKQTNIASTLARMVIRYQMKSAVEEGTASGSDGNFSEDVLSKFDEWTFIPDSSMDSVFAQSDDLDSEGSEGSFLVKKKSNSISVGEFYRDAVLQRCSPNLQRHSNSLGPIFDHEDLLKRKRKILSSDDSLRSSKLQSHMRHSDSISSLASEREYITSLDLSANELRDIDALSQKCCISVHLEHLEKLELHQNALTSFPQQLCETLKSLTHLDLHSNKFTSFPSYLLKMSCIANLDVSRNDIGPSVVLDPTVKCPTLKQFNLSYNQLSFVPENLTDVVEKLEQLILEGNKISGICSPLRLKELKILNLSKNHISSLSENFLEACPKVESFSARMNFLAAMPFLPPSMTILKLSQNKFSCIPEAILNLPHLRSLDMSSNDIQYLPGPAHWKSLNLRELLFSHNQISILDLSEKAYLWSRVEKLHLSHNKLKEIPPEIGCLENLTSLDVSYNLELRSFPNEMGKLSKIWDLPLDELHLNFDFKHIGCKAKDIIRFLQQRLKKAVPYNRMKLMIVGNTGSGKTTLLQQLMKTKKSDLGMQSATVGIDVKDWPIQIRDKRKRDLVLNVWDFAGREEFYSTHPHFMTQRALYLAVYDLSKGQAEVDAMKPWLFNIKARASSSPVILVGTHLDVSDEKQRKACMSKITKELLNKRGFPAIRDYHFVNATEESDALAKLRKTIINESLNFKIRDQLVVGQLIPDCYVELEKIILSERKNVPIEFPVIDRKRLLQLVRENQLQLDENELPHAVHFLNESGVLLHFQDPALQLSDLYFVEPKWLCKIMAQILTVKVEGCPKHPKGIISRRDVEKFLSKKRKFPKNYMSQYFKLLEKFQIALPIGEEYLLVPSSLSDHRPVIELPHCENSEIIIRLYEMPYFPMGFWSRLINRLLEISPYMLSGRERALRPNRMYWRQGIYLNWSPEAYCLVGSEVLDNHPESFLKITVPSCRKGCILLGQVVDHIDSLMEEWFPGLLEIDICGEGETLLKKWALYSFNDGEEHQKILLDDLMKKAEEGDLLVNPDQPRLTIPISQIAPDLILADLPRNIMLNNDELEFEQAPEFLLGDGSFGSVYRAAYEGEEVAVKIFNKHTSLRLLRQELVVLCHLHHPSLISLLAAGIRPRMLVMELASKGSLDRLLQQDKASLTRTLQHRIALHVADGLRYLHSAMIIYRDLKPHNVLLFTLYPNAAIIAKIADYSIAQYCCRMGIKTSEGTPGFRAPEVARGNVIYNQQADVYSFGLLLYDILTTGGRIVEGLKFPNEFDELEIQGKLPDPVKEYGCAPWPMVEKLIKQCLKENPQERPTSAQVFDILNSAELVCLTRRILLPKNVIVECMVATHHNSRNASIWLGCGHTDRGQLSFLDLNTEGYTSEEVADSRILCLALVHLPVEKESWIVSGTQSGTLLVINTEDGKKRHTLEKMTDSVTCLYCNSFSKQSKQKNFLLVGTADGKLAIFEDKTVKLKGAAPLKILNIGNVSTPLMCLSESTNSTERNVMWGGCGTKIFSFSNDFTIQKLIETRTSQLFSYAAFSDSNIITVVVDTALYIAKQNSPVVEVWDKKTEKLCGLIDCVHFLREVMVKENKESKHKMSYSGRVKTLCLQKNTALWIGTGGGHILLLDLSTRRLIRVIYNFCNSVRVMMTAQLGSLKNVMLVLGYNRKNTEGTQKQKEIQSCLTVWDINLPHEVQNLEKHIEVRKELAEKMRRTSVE

Point of comparison: CCCCSc1sc(-c2cc[nH]n2)c2c1C(=O)CC(C)(C)C2 [Example 27, 3-(Butylsulfanyl)-6,6-dimethyl-1-(1H-pyrazol-3-yl)-6,7-dihydro-2-benzothiophen-4(5H)-one], IC50 140 nM. Against it:
- CS(=O)(=O)c1sc(-c2cc[nH]n2)c2c1C(=O)CCC2 [Example 2, 3-(Methylsulfonyl)-1-(1H-pyrazol-3-yl)-6,7-dihydro-2-benzothiophen-4(5H)-one] — 25-fold higher, 3500 nM
- O=C1CCCc2c(-c3cc[nH]n3)sc(SC3CCCC3)c21 [Example 3, 3-(Cyclopentylsulfanyl)-1-(1H-pyrazol-3-yl)-6,7-dihydro-2-benzothiophen-4(5H)-one] — 3.1-fold higher, 430 nM
- O=C1CCCc2c(-c3cc[nH]n3)sc(NC3CCCC3)c21 [Example 4, 3-(Cyclopentylamino)-1-(1H-pyrazol-3-yl)-6,7-dihydro-2-benzothiophen-4(5H)-one] — within 1.5-fold, 160 nM
- CSc1sc(-c2cc[nH]n2)c2c1C(=O)CC(C)(C)C2 [Example 5, 6,6-Dimethyl-3-(methylsulfanyl)-1-(1H-pyrazol-3-yl)-6,7-dihydro-2-benzothiophen-4(5H)-one] — 1.6-fold higher, 230 nM
- CC1(C)CC(=O)c2c(S(C)(=O)=O)sc(-c3cc[nH]n3)c2C1 [Example 6, 6,6-Dimethyl-3-(methylsulfonyl)-1-(1H-pyrazol-3-yl)-6,7-dihydro-2-benzothiophen-4(5H)-one] — 20-fold higher, 2800 nM
- CCSc1sc(-c2cc[nH]n2)c2c1C(=O)CC(C)(C)C2 [Example 8, 3-(Ethylsulfanyl)-6,6-dimethyl-1-(1H-pyrazol-3-yl)-6,7-dihydro-2-benzothiophen-4(5H)-one] — within 1.5-fold, 180 nM
- CC(C)Sc1sc(-c2cc[nH]n2)c2c1C(=O)CC(C)(C)C2 [Example 9, 6,6-Dimethyl-3-(propan-2-ylsulfanyl)-1-(1H-pyrazol-3-yl)-6,7-dihydro-2-benzothiophen-4(5H)-one] — the same, 140 nM
- CC1(C)CC(=O)c2c(SCCO)sc(-c3cc[nH]n3)c2C1 [Example 10, 3-[(2-Hydroxyethyl)sulfanyl]-6,6-dimethyl-1-(1H-pyrazol-3-yl)-6,7-dihydro-2-benzothiophen-4(5H)-one] — 1.7-fold higher, 240 nM
- CC1(C)CC(=O)c2c(SCCCO)sc(-c3cc[nH]n3)c2C1 [Example 11, 3-[(3-Hydroxypropyl)sulfanyl]-6,6-dimethyl-1-(1H-pyrazol-3-yl)-6,7-dihydro-2-benzothiophen-4(5H)-one] — within 1.5-fold, 200 nM
- COCCSc1sc(-c2cc[nH]n2)c2c1C(=O)CC(C)(C)C2 [Example 12, 3-[(2-Methoxyethyl)sulfanyl]-6,6-dimethyl-1-(1H-pyrrazol-3-yl)-6,7-dihydro-2-henzothiophen-4(5H)-one] — 2.1-fold higher, 290 nM
- CN(C)CCSc1sc(-c2cc[nH]n2)c2c1C(=O)CC(C)(C)C2 [Example 13, 3-{[2-(Dimethylamino)ethyl]sulfanyl}-6,6-dimethyl-1-(1H-pyrazol-3-yl)-6,7-dihydro-2-benzothiophen-4(5H)-one] — 3.7-fold higher, 520 nM
- CC1(C)CC(=O)c2c(SCc3ccccc3)sc(-c3cc[nH]n3)c2C1 [Example 14, 3-(Benzylsulfanyl)-6,6-dimethyl-1-(1H-pyrazol-3-yl)-6,7-dihydro-2-benzothiophen-4(5H)-one] — 6.1-fold higher, 860 nM
- CC1(C)CC(=O)c2c(SCc3ccco3)sc(-c3cc[nH]n3)c2C1 [Example 15, 3-[(Furan-2-ylmethyl)sulfanyl]-6,6-dimethyl-1-(1H-pyrazol-3-yl)-6,7-dihydro-2-benzothiophen-4(5H)-one] — 3.2-fold higher, 450 nM
- CC(O)CSc1sc(-c2cc[nH]n2)c2c1C(=O)CC(C)(C)C2 (centres unmarked) [Example 16, 3-[(2-Hydroxypropyl)sulfanyl]-6,6-dimethyl-1-(1H-pyrazol-3-yl)-6,7-dihydro-2-benzothiophen-4(5H)-one] — 1.6-fold higher, 220 nM
- CC1(C)CC(=O)c2c(SCCc3ccccc3)sc(-c3cc[nH]n3)c2C1 [Example 17, 6,6-Dimethyl-3-[(2-phenylethyl)sulfanyl]-1-(1H-pyrazol-3-yl)-6,7-dihydro-2-benzothiophen-4(5H)-one] — 3.2-fold higher, 450 nM
- CCC(C)CSc1sc(-c2cc[nH]n2)c2c1C(=O)CC(C)(C)C2 (centres unmarked) [Example 18, 6,6-Dimethyl-3-[(2-methylbutyl)sulfanyl]-1-(1H-pyrazol-3-yl)-6,7-dihydro-2-benzothiophen-4(5H)-one] — 1.6-fold higher, 220 nM
- CC1(C)CC(=O)c2c(SCCCCCCO)sc(-c3cc[nH]n3)c2C1 [Example 19, 3-[(6-Hydroxyhexyl)sulfanyl]-6,6-dimethyl-1-(1H-pyrazol-3-yl)-6,7-dihydro-2-benzothiophen-4(5H)-one] — 2.3-fold lower, 60 nM
- CC1(C)CC(=O)c2c(SCCCCCCN=[N+]=[N-])sc(-c3cc[nH]n3)c2C1 [Example 20, 3-[(6-Azidohexyl)sulfanyl]-6,6-dimethyl-1-(1H-pyrazol-3-yl)-6,7-dihydro-2-benzothiophen-4(5H)-one] — 3.5-fold higher, 490 nM
- CC1(C)CC(=O)c2c(SCCCN=[N+]=[N-])sc(-c3cc[nH]n3)c2C1 [Example 21, 3-[(3-Azidopropyl)sulfanyl]-6,6-dimethyl-1-(1H-pyrazol-3-yl)-6,7-dihydro-2-benzothiophen-4(5H)-one] — within 1.5-fold, 200 nM
- CC1(C)CC(=O)c2c(SCC3CC3)sc(-c3cc[nH]n3)c2C1 [Example 22, 3-[(Cyclopropylmethyl)sulfanyl]-6,6-dimethyl-1-(1H-pyrazol-3-yl)-6,7-dihydro-2-benzothiophen-4(5H)-one] — within 1.5-fold, 130 nM
- CC(=O)NCCCCCCSc1sc(-c2cc[nH]n2)c2c1C(=O)CC(C)(C)C2 [Example 23, N-(6-{[5,5-Dimethyl-7-oxo-3-(1H-pyrazol-3-yl)-4,5,6,7-tetrahydro-2-benzothiophen-1-yl]sulfanyl}hexyl)acetamide] — within 1.5-fold, 180 nM
- CC1(C)CC(=O)c2c(SCCCCCCN)sc(-c3cc[nH]n3)c2C1 [Example 24, 3-[(6-Aminohexyl)sulfanyl]-6,6-dimethyl-1-(1H-pyrazol-3-yl)-6,7-dihydro-2-benzothiophen-4(5H)-one] — 2-fold lower, 70 nM
- CC1(C)CC(=O)c2c(SCC(O)CO)sc(-c3cc[nH]n3)c2C1 (centres unmarked) [Example 25, 3-[(2,3-Dihydroxypropyl)sulfanyl]-6,6-dimethyl-1-(1H-pyrazol-3-yl)-6,7-dihydro-2-benzothiophen-4(5H)-one] — 5.3-fold higher, 740 nM
- CC(C)CSc1sc(-c2cc[nH]n2)c2c1C(=O)CC(C)(C)C2 [Example 26, 6,6-Dimethyl-3-[(2-methylpropyl)sulfanyl]-1-(1H-pyrazol-3-yl)-6,7-dihydro-2-benzothiophen-4(5H)-one] — within 1.5-fold, 120 nM
- CCCSc1sc(-c2cc[nH]n2)c2c1C(=O)CC(C)(C)C2 [Example 28, 6,6-Dimethyl-3-(propylsulfanyl)-1-(1H-pyrazol-3-yl)-6,7-dihydro-2-benzothiophen-4(5H)-one] — within 1.5-fold, 160 nM
- CC1(C)CC(=O)c2c(SCC(F)(F)F)sc(-c3cc[nH]n3)c2C1 [Example 29, 6,6-Dimethyl-1-(1H-pyrazol-3-yl)-3-[(2,2,2-trifluoroethyl)sulfanyl]-6,7-dihydro-2-benzothiophen-4(5H)-one] — 1.8-fold higher, 250 nM
- CCC(C)Sc1sc(-c2cc[nH]n2)c2c1C(=O)CC(C)(C)C2 (centres unmarked) [Example 30, 3-(Butan-2-ylsulfanyl)-6,6-dimethyl-1-(1H-pyrazol-3-yl)-6,7-dihydro-2-benzothiophen-4(5H)-one] — within 1.5-fold, 180 nM
- CC1(C)CC(=O)c2c(SCC[Si](C)(C)C)sc(-c3cc[nH]n3)c2C1 [Example 31, 6,6-Dimethyl-1-(1H-pyrazol-3-yl)-3-{[2-(trimethylsilyl)ethyl]sulfanyl}-6,7-dihydro-2-benzothiophen-4(5H)-one] — 14-fold higher, 1900 nM
- Cc1nnc(Sc2sc(-c3cc[nH]n3)c3c2C(=O)CC(C)(C)C3)s1 [Example 32, 6,6-Dimethyl-3-[(5-methyl-1,3,4-thiadiazol-2-yl)sulfanyl]-1-(1H-pyrazol-3-yl)-6,7-dihydro-2-benzothiophen-4(5H)-one] — 29-fold higher, 4000 nM
- CC1(C)CC(=O)c2c(SCCCCl)sc(-c3cc[nH]n3)c2C1 [Example 33, 3-[(3-Chloropropyl)sulfanyl]-6,6-dimethyl-1-(1H-pyrazol-3-yl)-6,7-dihydro-2-benzothiophen-4(5H)-one] — within 1.5-fold, 120 nM
- CCCCCCSc1sc(-c2cc[nH]n2)c2c1C(=O)CC(C)(C)C2 [Example 34, 3-(Hexylsulfanyl)-6,6-dimethyl-1-(1H-pyrazol-3-yl)-6,7-dihydro-2-benzothiophen-4(5H)-one] — 9.3-fold higher, 1300 nM
- CCCNc1sc(-c2cc[nH]n2)c2c1C(=O)CC(C)(C)C2 [Example 35, 6,6-Dimethyl-3-(propylamino)-1-(1H-pyrazol-3-yl)-6,7-dihydro-2-benzothiophen-4(5H)-one] — within 1.5-fold, 150 nM
- CNc1sc(-c2cc[nH]n2)c2c1C(=O)CC(C)(C)C2 [Example 36, 6,6-Dimethyl-3-(methylamino)-1-(1H-pyrazol-3-yl)-6,7-dihydro-2-benzothiophen-4(5H)-one] — 5.4-fold higher, 760 nM
- CC(C)Nc1sc(-c2cc[nH]n2)c2c1C(=O)CC(C)(C)C2 [Example 37, 6,6-Dimethyl-3-(propan-2-ylamino)-1-(1H-pyrazol-3-yl)-6,7-dihydro-2-benzothiophen-4(5H)-one] — within 1.5-fold, 180 nM
